Laboratory results published in patent publication US11254644B2, “Inhibitors of alpha-amino-beta-carboxymuconic acid semialdehyde decarboxylase” (TES Pharma S.r.l., priority 2014, dated 2022).

Experiments:
ACMSD-1 = ACMSD-1 (Homo sapiens (Human), UniProt Q8TDX5); test: ACMSD-1 modulation in HEK293T cells transiently expressing ACMSD; type: cell-based; settings: about 50 nM to about 5 uM; stimulated 48 hrs to 72 hrs
[1] = tested on: SIRT1-regulated genes in AML-12 cells; test: RT-qPCR analysis of SIRT1-regulated genes in AML-12 cells; type: cell-based, mouse; settings: 24 hrs
Experimental: (§1) Cells (AML-12, Hepa-1.6, HEK-293, primary human and murine hepatocytes) are treated with different concentrations of a compound of Formula (I), Formula (Ia), Formula (Ib), Formula (II), or Formula (III), or a pharmaceutically acceptable salt thereof and the gene expression of ACMSD, Pgc1a, Sod1, and Sod2 (MnSOD) is determined using RT-qPCR. Total RNA is extracted from cells and the extracted RNA is treated with DNase and used for reverse transcription (RT).
(§2) Gene expression of ACMSD and genes known to be regulated by SIRT1, (an enzyme that is strictly NAD^+ dependent) such as Pgc1a, Sod1, Sod2 (MnSOD), were analysed in AML-12 cells, Hepa-1.6 cells and primary murine hepatocytes treated with Compound 1 or 17.
(§3) Cells (AML-12, Hepa-1.6, HEK-293, primary human and murine hepatocytes) were treated with different concentrations of Compound 1 or Compound 17. Total RNA was extracted from cells using TRIzol (Invitrogen) according to the manufacturer's instructions. The RNA was treated with DNase, and 2 μg of RNA was used for reverse transcription (RT). 50× diluted cDNA was used for RT-quantitative PCR (RT-qPCR) reactions. The RT-qPCR reactions were performed using the Light-Cycler system (Roche Applied Science) and a qPCR Supermix (QIAGEN) with the indicated primers. The average of at least three technical repeats was used for each biological data point.

[2] = tested on: SIRT1-regulated genes in Hepa-1.6 cells; test: RT-qPCR analysis of SIRT1-regulated genes in Hepa-1.6 cells; type: cell-based; settings: Hepa-1.6 hepatic cell line, 24 hrs
Experimental: as §1, §2, §3

hACMSD (ACMSD1) = hACMSD (ACMSD1) (Homo sapiens (Human), UniProt Q8TDX5); test: Determination of ACMSD1 inhibition, spectrophotometrical in vitro assay; type: biochemical; settings: HAA concentration of 10 μM
Experimental: The activity of compounds as inhibitors of ACMSD1 is determined in a spectrophotometrical in vitro assay. The pre-assay mixture is incubated and a compound of Formula (I), Formula (Ia), Formula (Ib), Formula (II), or Formula (III), or a pharmaceutically acceptable salt thereof, and ACMSD1 solution is then added. The effect of ACMS concentration on the enzyme activity is investigated by varying 3-hydroxyanthranilic acid (3OH-HA) concentration in the pre-assay mixture. Kinetic parameters are calculated from the initial velocity data using a Lineweaver-Burk plot.
The activity of compounds 1-19 and 21-23 as inhibitors of ACMSD1 was determined by measuring the conversion of 3OH-Anthranilic Acid into product (i.e., ACMS) in a spectrophotometrical in vitro assay.
The pre-assay mixture consisting of 3-hydroxyanthranilic acid (3OH-HA), 3-hydroxyanthranilic acid, 3,4-diOxygenase (HAO), and a dialyzed crude extract of E. coli BL21 (DE3) cells expressing the recombinant enzyme, was incubated at 25° C. with monitoring of the increase in absorbance at 360 nm due to the formation of ACMS from 3OH-HA. After the reaction was completed within ˜2 mins, an aliquot of ACMSD1 solution (prepared and purified from Pichia Pastoris overexpressing the recombinant enzyme) was added, and the decrease in absorbance at 360 nm was followed at 15 second intervals. The effect of ACMS concentration on the enzyme activity was investigated by varying 3OH-HA concentration from 2 to 20 μM. Kinetic parameters were calculated from the initial velocity data by using the Lineweaver-Burk plot.
The rate of the decrease in absorbance caused by ACMSD1 was calculated by subtracting that of the control reaction mixture without ACMSD from that described above. One unit of ACMSD activity was indicated as the amount of enzyme that converts 1 mmol of ACMS per minute at 25° C. The absence or a reduction of ACMSD1 activity (e.g., by using ACMSD inhibitors) results in a slow ACMS-spontaneous degradation (i.e., cyclization to form quinolic acid).
The enzymatic activity was determined at a HAA concentration of 10 μM in the presence of the compounds in Table 1 below. The compounds were tested at the concentration of about 5 μM and 10 μM and the IC50 was calculated for compounds showing inhibitory activity higher than 50%.

ACMSD-1, sequence (Q8TDX5 whole entry): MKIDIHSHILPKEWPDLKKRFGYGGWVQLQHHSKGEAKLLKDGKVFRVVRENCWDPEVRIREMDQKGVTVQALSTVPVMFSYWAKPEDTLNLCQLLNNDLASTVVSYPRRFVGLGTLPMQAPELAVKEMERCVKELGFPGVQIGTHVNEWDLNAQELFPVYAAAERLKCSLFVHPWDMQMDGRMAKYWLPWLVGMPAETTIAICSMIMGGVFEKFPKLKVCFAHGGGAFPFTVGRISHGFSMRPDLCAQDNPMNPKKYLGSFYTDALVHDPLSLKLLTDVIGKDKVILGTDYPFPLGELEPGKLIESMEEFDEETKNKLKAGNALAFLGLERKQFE
hACMSD (ACMSD1), sequence (Q8TDX5 whole entry): as above

IC50 (hACMSD (ACMSD1)): 50 nM
Compound: N#Cc1c(-c2ccccc2)nc(SCc2cccc(C(=O)O)c2)[nH]c1=O [Compound 1]
ACMSD-1 activity in transfected HEK293T cells (ACMSD-1): inhibited ACMSD-1 activity, in a dose dependent manner
Sod2 mRNA levels [1]: increased in a dose-dependent manner
Sod2 mRNA levels [2]: increased in a dose-dependent manner
